{"source": "ChEMBL document CHEMBL5465560", "about": "“Selectivity Literature for EUbOPEN Chemogenomic Library” (2024)", "key": {"[1]": {"biological_target": "T1, Mitogen-activated protein kinase kinase kinase kinase 3 (Homo sapiens) (UniProt Q8IVH8)", "T1 sequence (whole entry)": "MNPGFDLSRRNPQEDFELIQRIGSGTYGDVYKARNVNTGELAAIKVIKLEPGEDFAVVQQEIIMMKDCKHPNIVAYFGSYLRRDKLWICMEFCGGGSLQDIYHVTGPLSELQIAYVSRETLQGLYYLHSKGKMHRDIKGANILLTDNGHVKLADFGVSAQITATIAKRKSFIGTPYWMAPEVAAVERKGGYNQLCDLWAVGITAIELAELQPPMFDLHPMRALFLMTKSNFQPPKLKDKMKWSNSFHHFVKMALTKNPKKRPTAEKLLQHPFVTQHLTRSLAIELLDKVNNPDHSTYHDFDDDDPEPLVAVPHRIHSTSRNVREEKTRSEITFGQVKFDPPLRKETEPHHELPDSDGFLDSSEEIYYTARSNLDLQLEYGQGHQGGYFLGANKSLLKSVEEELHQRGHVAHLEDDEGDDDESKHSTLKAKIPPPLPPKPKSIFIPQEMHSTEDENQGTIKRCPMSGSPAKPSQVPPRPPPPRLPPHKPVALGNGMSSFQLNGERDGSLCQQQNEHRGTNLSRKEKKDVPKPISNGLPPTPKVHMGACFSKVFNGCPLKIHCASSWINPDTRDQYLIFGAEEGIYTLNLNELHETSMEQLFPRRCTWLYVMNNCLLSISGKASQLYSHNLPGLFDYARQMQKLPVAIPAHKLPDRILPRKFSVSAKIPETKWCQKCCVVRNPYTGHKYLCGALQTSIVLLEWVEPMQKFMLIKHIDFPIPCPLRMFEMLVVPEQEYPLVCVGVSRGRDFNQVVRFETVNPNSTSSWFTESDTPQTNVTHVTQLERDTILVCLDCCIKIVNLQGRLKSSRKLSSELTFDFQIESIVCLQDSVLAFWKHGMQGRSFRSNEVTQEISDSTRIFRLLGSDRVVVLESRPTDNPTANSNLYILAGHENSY", "experiment": "Selectivity interaction (KinomeScan (DiscoverX)) EUB0000607a MAP4K3", "settings": "at 10 µM"}, "[2]": {"biological_target": "T2, Inhibitor of nuclear factor kappa-B kinase subunit beta (Homo sapiens) (UniProt O14920)", "T2 sequence (whole entry)": "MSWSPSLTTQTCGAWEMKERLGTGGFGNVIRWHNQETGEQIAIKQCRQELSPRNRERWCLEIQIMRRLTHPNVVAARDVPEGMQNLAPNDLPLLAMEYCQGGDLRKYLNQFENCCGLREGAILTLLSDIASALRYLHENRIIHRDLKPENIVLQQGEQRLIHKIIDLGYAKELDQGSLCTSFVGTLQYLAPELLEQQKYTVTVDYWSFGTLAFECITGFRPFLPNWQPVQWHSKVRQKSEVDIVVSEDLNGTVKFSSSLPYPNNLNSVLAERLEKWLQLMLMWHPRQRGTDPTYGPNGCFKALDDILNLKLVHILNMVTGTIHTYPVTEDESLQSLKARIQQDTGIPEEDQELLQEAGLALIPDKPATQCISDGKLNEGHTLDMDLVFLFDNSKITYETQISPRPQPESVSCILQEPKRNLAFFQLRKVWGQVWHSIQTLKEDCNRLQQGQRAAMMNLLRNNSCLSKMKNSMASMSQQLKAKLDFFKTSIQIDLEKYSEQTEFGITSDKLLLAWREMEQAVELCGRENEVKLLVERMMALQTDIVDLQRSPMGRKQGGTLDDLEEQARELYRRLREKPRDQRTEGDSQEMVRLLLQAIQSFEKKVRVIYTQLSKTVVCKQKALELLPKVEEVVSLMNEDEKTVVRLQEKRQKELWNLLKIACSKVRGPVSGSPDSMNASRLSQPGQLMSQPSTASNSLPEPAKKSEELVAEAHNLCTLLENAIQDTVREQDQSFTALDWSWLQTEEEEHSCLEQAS", "settings": "at 1 µM"}, "[3]": {"biological_target": "Ribosomal protein S6 kinase alpha-1 (Homo sapiens, UniProt Q15418)", "sequence (Q15418 whole entry)": "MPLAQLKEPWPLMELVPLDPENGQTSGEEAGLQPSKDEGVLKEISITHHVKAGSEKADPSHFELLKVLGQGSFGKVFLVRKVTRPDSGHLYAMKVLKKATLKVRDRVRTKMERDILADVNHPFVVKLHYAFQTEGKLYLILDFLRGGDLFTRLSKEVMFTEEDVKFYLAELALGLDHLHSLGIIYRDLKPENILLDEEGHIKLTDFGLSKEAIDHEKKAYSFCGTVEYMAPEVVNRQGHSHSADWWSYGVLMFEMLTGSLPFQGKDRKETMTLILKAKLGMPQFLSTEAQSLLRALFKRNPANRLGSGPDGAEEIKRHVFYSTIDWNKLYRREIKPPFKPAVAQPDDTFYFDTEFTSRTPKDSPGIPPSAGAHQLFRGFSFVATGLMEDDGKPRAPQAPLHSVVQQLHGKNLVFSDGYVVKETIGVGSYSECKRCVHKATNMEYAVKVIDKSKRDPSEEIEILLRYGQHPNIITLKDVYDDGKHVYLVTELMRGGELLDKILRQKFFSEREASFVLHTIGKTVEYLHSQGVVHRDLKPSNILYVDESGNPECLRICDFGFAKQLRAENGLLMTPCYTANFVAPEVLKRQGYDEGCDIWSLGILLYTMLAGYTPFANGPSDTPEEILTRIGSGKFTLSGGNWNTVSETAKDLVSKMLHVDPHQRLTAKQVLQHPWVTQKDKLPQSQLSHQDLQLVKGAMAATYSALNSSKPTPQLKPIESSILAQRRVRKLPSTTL", "settings": "at 10 µM"}, "[4]": {"biological_target": "Receptor-type tyrosine-protein kinase FLT3 (Homo sapiens) (UniProt P36888)", "sequence (P36888 whole entry)": "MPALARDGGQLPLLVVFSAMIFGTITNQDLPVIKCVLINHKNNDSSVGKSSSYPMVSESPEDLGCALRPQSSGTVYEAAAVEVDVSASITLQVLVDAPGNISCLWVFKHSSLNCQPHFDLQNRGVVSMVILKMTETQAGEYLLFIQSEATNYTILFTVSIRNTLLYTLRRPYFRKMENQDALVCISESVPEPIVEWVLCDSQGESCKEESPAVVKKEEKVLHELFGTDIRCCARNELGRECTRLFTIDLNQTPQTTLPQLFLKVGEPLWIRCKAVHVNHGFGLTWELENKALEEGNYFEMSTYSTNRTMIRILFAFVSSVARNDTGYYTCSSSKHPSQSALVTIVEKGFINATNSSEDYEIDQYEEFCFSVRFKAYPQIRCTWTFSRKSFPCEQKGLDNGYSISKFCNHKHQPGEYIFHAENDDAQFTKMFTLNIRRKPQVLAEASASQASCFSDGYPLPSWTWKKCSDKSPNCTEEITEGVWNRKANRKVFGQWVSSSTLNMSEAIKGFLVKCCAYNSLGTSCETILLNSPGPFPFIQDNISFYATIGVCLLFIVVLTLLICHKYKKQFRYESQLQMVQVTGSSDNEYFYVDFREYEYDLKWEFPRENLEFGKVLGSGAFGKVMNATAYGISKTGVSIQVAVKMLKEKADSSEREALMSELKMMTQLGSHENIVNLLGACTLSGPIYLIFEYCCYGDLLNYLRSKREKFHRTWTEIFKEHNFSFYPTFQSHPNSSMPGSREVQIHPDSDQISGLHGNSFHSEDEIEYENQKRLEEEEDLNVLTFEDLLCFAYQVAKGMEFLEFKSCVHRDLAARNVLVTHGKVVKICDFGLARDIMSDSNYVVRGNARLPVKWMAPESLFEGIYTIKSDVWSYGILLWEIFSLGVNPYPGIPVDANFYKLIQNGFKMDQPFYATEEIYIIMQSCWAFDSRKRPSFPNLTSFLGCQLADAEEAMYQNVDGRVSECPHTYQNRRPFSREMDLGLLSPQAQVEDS", "experiment": "(§1) Selectivity interaction (Kinase panel (Invitrogen)) EUB0000639a FLT3", "settings": "at 200 nM"}, "[5]": {"biological_target": "Receptor-type tyrosine-protein kinase FLT3 (Homo sapiens) (UniProt P36888)", "experiment": "as §1", "settings": "at 200 nM", "remark": "listed apart in the source"}, "[6]": {"biological_target": "T3, Cyclin-dependent kinase-like 2 (Homo sapiens) (UniProt Q92772)", "T3 sequence (whole entry)": "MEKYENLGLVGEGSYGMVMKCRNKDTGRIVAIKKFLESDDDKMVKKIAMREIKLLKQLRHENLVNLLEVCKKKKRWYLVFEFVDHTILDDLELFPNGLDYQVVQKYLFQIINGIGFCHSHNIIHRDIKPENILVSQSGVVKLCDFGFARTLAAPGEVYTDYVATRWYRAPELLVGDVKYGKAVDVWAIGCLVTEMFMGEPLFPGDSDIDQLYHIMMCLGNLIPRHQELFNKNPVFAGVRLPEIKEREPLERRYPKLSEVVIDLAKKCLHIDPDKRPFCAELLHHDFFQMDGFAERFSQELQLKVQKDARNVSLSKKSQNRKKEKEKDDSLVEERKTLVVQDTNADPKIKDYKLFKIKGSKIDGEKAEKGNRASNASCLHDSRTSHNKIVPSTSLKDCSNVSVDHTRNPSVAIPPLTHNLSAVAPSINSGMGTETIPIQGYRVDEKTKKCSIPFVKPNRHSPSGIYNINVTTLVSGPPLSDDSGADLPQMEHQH", "experiment": "Selectivity interaction (KinomeScan (DiscoverX)) EUB0000595a CDKL2", "settings": "at 10 µM"}, "[7]": {"biological_target": "Leukocyte tyrosine kinase receptor (Homo sapiens, UniProt P29376)", "sequence (P29376 whole entry)": "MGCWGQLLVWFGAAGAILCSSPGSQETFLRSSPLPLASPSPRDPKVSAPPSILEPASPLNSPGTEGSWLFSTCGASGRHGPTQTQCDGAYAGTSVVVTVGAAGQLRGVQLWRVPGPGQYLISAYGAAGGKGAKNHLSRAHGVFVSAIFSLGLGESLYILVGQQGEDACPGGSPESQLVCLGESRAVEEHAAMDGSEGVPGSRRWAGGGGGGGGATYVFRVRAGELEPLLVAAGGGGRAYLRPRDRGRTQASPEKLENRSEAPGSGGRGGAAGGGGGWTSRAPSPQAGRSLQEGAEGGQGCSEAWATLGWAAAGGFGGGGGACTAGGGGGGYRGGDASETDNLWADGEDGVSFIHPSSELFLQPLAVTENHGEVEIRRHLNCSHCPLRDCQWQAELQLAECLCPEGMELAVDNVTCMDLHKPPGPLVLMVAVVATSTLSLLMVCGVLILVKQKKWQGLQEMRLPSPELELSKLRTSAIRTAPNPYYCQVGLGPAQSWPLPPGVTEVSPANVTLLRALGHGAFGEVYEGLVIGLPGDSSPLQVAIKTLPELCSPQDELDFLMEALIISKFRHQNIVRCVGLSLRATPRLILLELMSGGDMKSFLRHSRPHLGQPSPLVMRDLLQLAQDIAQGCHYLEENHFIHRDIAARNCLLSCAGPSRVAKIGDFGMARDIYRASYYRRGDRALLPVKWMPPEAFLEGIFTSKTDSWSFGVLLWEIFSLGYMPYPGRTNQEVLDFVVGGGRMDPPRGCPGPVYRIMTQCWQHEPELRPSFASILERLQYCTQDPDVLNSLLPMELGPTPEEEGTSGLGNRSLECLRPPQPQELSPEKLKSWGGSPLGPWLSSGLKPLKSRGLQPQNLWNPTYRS", "experiment": "Selectivity interaction (Ambit KINOMEscan and KiNATiv profiling in Jurkat cells) EUB0000090b LTK", "format": "cell-based", "settings": "at 1 µM"}, "[8]": {"biological_target": "Calcium/calmodulin-dependent protein kinase kinase 1 (Homo sapiens) (UniProt Q8N5S9)", "sequence (Q8N5S9 whole entry, looked up)": "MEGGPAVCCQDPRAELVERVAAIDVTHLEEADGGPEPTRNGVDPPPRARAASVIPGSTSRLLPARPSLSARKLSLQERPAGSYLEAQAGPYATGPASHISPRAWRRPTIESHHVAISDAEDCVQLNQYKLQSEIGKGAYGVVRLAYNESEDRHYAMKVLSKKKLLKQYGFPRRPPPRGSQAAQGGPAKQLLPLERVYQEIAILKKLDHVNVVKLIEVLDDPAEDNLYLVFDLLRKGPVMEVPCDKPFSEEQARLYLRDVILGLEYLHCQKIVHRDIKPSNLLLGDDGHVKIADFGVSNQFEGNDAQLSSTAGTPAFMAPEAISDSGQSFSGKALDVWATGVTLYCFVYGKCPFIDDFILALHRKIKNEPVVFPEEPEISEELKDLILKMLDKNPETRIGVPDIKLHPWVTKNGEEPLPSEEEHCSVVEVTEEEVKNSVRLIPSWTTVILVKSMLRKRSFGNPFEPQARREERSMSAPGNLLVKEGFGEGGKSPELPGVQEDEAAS", "settings": "at 10 µM"}, "[9]": {"experiment": "Selectivity interaction (KinomeScan (DiscoverX)) EUB0001619a PKNB", "settings": "at 1 µM"}}}
{"smiles": "CNC(=O)Nc1ccc(-c2nc(N3CC4CCC(C3)O4)c3cnn(C4CCC5(CC4)OCCO5)c3n2)cc1", "values": [{"measurement": "% of control", "setting": "[1]", "value": 94, "unit": "%"}]}
{"smiles": "Cc1ccc(-c2ccc3c(ccc4sc5c(c43)NC[C@@H](C)NC5=O)n2)cn1", "values": [{"measurement": "% of inhibition", "setting": "[2]", "value": 0, "unit": "%"}]}
{"smiles": "CCN(CC)CCCCNc1ncc2cc(-c3cc(OC)cc(OC)c3)c(NC(=O)NC(C)(C)C)nc2n1", "values": [{"measurement": "% of control", "setting": "[3]", "value": 100, "unit": "%"}]}
{"smiles": "CC[C@@H]1[C@H](F)C(=O)N[C@@H]1COc1nccc2cc(C(N)=O)c(OC)cc12", "note": "[ZIMLOVISERTIB]", "values": [{"measurement": "% of inhibition", "setting": "[4]", "value": 9.68, "unit": "%"}, {"measurement": "% of inhibition", "setting": "[5]", "value": 29.4, "unit": "%"}]}
{"smiles": "COCC(=O)NC/C=C/c1ccc2ncnc(Nc3ccc(Oc4ccc(C)nc4)c(C)c3)c2c1", "note": "[CP-724714]", "values": [{"measurement": "% of control", "setting": "[6]", "value": 91, "unit": "%"}]}
{"smiles": "CN(C)C/C=C/C(=O)Nc1ccc(C(=O)N2CCCC(Nc3ncc(Cl)c(-c4c[nH]c5ccccc45)n3)C2)cc1", "note": "(centres undefined)", "values": [{"measurement": "% of control", "setting": "[7]", "value": 84, "unit": "%"}]}
{"smiles": "Cc1cc([C@@H](C)Nc2ccccc2C(=O)O)c2nc(N3CCOCC3)cc(=O)n2c1", "note": "[AZD-6482]", "values": [{"measurement": "% of control", "setting": "[8]", "value": 98, "unit": "%"}]}
{"smiles": "N#Cc1cccc(-c2c[nH]c3ncnc(N4CCOCC4)c23)c1", "values": [{"measurement": "% of control", "setting": "[9]", "value": 47, "unit": "%"}]}
